Measurements published in patent publication US6100074A, “Mutant mono-oxygenase cytochrome P-450 cam” (BG plc, priority 1994, dated 2000).

Columns and labels:
P-450cam mutant Y96A [1] = biological target: T1, P-450cam mutant Y96A (Pseudomonas putida, UniProt P00183, Y97A); assay: Kapp (dissociation constant), substrate binding, Y96A; conditions: for dissociation constants (Kapp) / affinity, in words: Y96A compared to wild-type
Method: (§1) Binding of potential substrates was investigated by spectroscopic methods.
(§2) ^a Values are the average of two independent measurements using the
(§3) method of Sligar (S. G. Sligar, Biochemistry, 1976, 15, 5399-5406). The
(§4) value of Kapp is strongly dependent on the concentration of K^+
(§5) in the buffer. At [K^+ ] > 150 mM. Kapp for camphor is 0.6 μM
(§6) for both wildtype and Y96A. Data in this table were determined at [K^
(§7) ] = 70 mM in phosphate buffer, pH 7.4, in order to avoid salting out of
(§8) substrates at higher ion concentrations.
(§9) ^b Saturation not reached.

P-450cam = conditions: wild-type; cited from earlier work
wild type P450cam [2] = biological target: T2, wild type P450cam (Pseudomonas putida, UniProt P00183); assay: Kapp (dissociation constant), substrate binding, wild-type; conditions: for Kd: WT, [K+] = 70 mM, phosphate buffer, pH 7.4, average of two measurements
Method: as §1, §2, §3, §4, §5, §6, §7, §8, §9

P-450cam mutant Y96A [3] = biological target: T1, P-450cam mutant Y96A; assay type: binding
P-450cam mutant Y96A [4] = biological target: T1, P-450cam mutant Y96A; assay: Hydroxylation of camphor, Y96A; assay type: biochemical; conditions: Y96A compared to wild-type
Description: This decrease in selectivity can be attributed to the loss of the hydrogen bond between Y96 and camphor.

wild type P450cam [5] = biological target: T2, wild type P450cam; assay: Turnover rate measured as NADH consumption rate, wild type; assay type: biochemical, P. putida; design: reconstituted with putidaredoxin and putidaredoxin reductase
wild type P450cam [6] = biological target: T2, wild type P450cam; assay type: binding; conditions: for conversion of haem to high-spin form / shift in absorption spectrum, in words: wild-type
[7] = biological target: T3, P450cam mutant Y96A, C334A (Pseudomonas putida, UniProt P00183, C335A/Y97A); assay type: biochemical, P. putida; conditions: also contains C334A
T3 construct: reconstituted with putidaredoxin and putidaredoxin reductase
Method: (§10) A solution containing 10 μM putidaredoxin, 2 μM putidaredoxin reductase, 1 μM cytochrome P-450cam mono-oyxgenase (wild-type or mutant) and 1 mM diphenylmethane in 100 mM KC1, 20 mM KH2 PO4 pH7.4 was preincubated at 25° C. in a shaker for 5 min. The enzymatic reaction was initiated by firstly adding NADH to a total concentration of 2 mM. Further four aliquots of NADH (to increase the NADH concentration by 1 mM each time) were added in intervals of 5 min and the reaction quenched after 30 min by adding 0.5 ml chloroform. The chloroform layer was analysed by gas chromatography.
Reaction products for some substrate compounds have been purified by high performance liquid chromatography and identified by mass spectroscopy, nuclear magnetic resonance, and/or co-elution. […] Table 4(a) to 4(h) details the product distributions for mutant and substrate combinations where this has been elucidated to date.
All mutants listed below also contain the C334A mutation.
Turnover rate measured as NADH consumption rate
(nmole NADH/nmole P450cam/s).

P-450cam mutant Y96A [8] = biological target: T1, P-450cam mutant Y96A; assay type: biochemical; design: key: Those substrates where oxidation has been demonstrated by means of NADH turnover are marked with a + sign
wild type P450cam [9] = biological target: T2, wild type P450cam; assay: biochemical; assay type: binding; conditions: Wild type; 200 μM DTT, 200 μM test compound, phosphate buffer; read-out: Vs DTT (percentage displacement of DTT bound to P-450)
P-450cam mutant Y96A [10] = biological target: T1, P-450cam mutant Y96A; assay: biochemical; assay type: binding; conditions: Mutant Y96A; 200 μM DTT, 200 μM test compound, phosphate buffer; read-out: Vs DTT (percentage displacement of DTT bound to P-450)
P-450cam mutant Y96A [11] = biological target: T1, P-450cam mutant Y96A; assay: Gas chromatography of incubation products, Y96A; assay type: biochemical; conditions: 1 mM diphenylmethane, 1 μM P-450cam, 25° C., 30 min
Method: The mutant protein was reconstituted with putidaredoxin and putidaredoxin reductase. Diphenylmethane (5) was added and the mixture was incubated with NADH and oxygen.
as §10
Organic extracts of the crude incubation mixture were analysed by gas chromatography. […] The other aromatic hydroxylation products, the ortho and meta isomers, had different retention times. Further confirmation of the identity of the product as structure (6) was provided by mass spectrometry, which gave the correct mass peak at 184.

SMILES	Kd (P-450cam mutant Y96A [1])	dissociation constants (Kapp) / affinity, in words (P-450cam mutant Y96A [1])	hydroxylation to 5-exo-hydroxycamphor, in words (P-450cam)	Kd (wild type P450cam [2])	conversion of haem to high-spin form, in words (P-450cam mutant Y96A [3])	hydroxylation selectivity, in words (P-450cam mutant Y96A [4])	Turnover rate measured as NADH consumption rate (wild type P450cam [5])	ΔSpin high/low (percentage of P-450 converted from low- to high-spin) (wild type P450cam [6]; Wild type, 200 μM test compound, phosphate buffer pH 7.4)	Turnover rate measured as NADH consumption rate [7]	NADH turnover? (P-450cam mutant Y96A [8])	inhibition at 200 µM (wild type P450cam [9])	percent displacement of bound DTT at 200 µM (P-450cam mutant Y96A [10])	conversion of haem to high-spin form / shift in absorption spectrum, in words (wild type P450cam [6])	binding, in words (wild type P450cam [2]; wild-type)	new product peak by GC (para-hydroxydiphenylmethane (6)) (P-450cam mutant Y96A [11])
CC12CCC(CC1=O)C2(C)C (stereo not shown) [compound 1, camphor]	12 µM	increased	regio- and stereo-selective hydroxylation	6.3 µM	not fully converted to the high-spin form	less selective									
CCCCCCC [n-Heptane]							2.7 nmole NADH/nmole P450cam/s	5%	4.4 nmole NADH/nmole P450cam/s	+	5%	40%			
C1C2CC3CC1CC(C2)C3 [compound 3, adamantane]	1.4 µM	reduced		8.4 µM									fully converted the haem to the high-spin form		
C1CC2CCC1C2 [compound 4, norbornane]	92 µM	reduced		330 µM									fully converted the haem to the high-spin form		
O=C1C2CC3CC(C2)CC1C3 [compound 2, adamantanone]	28 µM	increased		12 µM	not fully converted to the high-spin form								fully converted the haem to the high-spin form		
c1ccc(Cc2ccccc2)cc1 [compound 5, diphenylmethane]	73 µM	greatly enhanced affinity		> 1500 µM	partial conversion					+	5%		did not give a shift in the absorption spectrum	bound poorly	Only one major new peak
